PubChem BioAssay (NCI)
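Cells were grown in 96-well plates and exposed to each compound for 48 hours at five concentrations; endpoints were interpolated linearly between bracketing concentrations, or set to the highest concentration if not reached. GI50: concentration for 50% inhibition of growth. TGI: concentration producing complete growth inhibition.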

Key:
Test in all cases: NCI tumour cell line growth inhibition, 48 h
OVCAR-4 ovarian = test system: OVCAR-4 ovarian
DU-145 prostate = test system: DU-145 prostate
HL-60(TB) leukemia = test system: HL-60(TB) leukemia
HCC-2998 colon = test system: HCC-2998 colon
PC-3 prostate = test system: PC-3 prostate
SN12C renal = test system: SN12C renal
UACC-62 melanoma = test system: UACC-62 melanoma
SF-539 CNS = test system: SF-539 CNS
NCI-H226 lung = test system: NCI-H226 lung
OVCAR-8 ovarian = test system: OVCAR-8 ovarian
M14 melanoma = test system: M14 melanoma
MDA-MB-468 breast = test system: MDA-MB-468 breast
A549 NSCLC = test system: A549 NSCLC
COLO 205 colon = test system: COLO 205 colon
KM12 colon = test system: KM12 colon
SNB-19 CNS = test system: SNB-19 CNS
SK-MEL-5 melanoma = test system: SK-MEL-5 melanoma
SK-MEL-28 melanoma = test system: SK-MEL-28 melanoma
CAKI-1 renal = test system: CAKI-1 renal
SNB-75 CNS = test system: SNB-75 CNS
RPMI-8226 leukemia = test system: RPMI-8226 leukemia
SR leukemia = test system: SR leukemia
SF-268 CNS = test system: SF-268 CNS
ACHN renal = test system: ACHN renal
786-0 renal = test system: 786-0 renal
MOLT-4 leukemia = test system: MOLT-4 leukemia
MDA-MB-231 breast = test system: MDA-MB-231 breast
HOP-92 NSCLC = test system: HOP-92 NSCLC
HT29 colon = test system: HT29 colon
EKVX NSCLC = test system: EKVX NSCLC
IGROV1 ovarian = test system: IGROV1 ovarian
SK-OV-3 ovarian = test system: SK-OV-3 ovarian
BT-549 breast = test system: BT-549 breast
SK-MEL-2 melanoma = test system: SK-MEL-2 melanoma
NCI-H460 lung = test system: NCI-H460 lung
UACC-257 melanoma = test system: UACC-257 melanoma
HCT-15 colon = test system: HCT-15 colon
K-562 leukemia = test system: K-562 leukemia
OVCAR-5 ovarian = test system: OVCAR-5 ovarian
MCF7 breast = test system: MCF7 breast
SF-295 CNS = test system: SF-295 CNS
TK-10 renal = test system: TK-10 renal
HCT-116 colon = test system: HCT-116 colon
NCI-H23 lung = test system: NCI-H23 lung
A498 renal = test system: A498 renal
HOP-62 NSCLC = test system: HOP-62 NSCLC
U251 CNS = test system: U251 CNS
NCI-H522 lung = test system: NCI-H522 lung
UO-31 renal = test system: UO-31 renal
HS 578T breast = test system: HS 578T breast
RXF 393 renal = test system: RXF 393 renal
SW-620 colon = test system: SW-620 colon
OVCAR-3 ovarian = test system: OVCAR-3 ovarian
T-47D breast = test system: T-47D breast
MDA-MB-435 = test system: MDA-MB-435
MALME-3M melanoma = test system: MALME-3M melanoma
CCRF-CEM leukemia = test system: CCRF-CEM leukemia
LOX IMVI melanoma = test system: LOX IMVI melanoma

## O=c1nc(-c2ccccc2)cc(-c2cc3ccccc3nc2Cl)[nH]1
OVCAR-4 ovarian
  GI50: 17.8 µM
  TGI: 61.4 µM
DU-145 prostate
  GI50: 7.23 µM
  TGI: 20.3 µM
HL-60(TB) leukemia
  GI50: 2.27 µM
  TGI: 6.67 µM
HCC-2998 colon
  GI50: 16.9 µM
  TGI: 33.7 µM
PC-3 prostate
  GI50: 6.11 µM
  TGI: 26.4 µM
SN12C renal
  GI50: 11.2 µM
  TGI: 23.9 µM
UACC-62 melanoma
  GI50: 7.98 µM
  TGI: 20.9 µM
SF-539 CNS
  GI50: 2.05 µM
  TGI: 5.1 µM
NCI-H226 lung
  GI50: 11.2 µM
  TGI: 28.1 µM
OVCAR-8 ovarian
  GI50: 3.71 µM
  TGI: 18.6 µM
M14 melanoma
  GI50: 12 µM
  TGI: 31.6 µM
MDA-MB-468 breast
  GI50: 4.24 µM
  TGI: 19.5 µM
A549 NSCLC
  GI50: 11.6 µM
  TGI: 80.3 µM
COLO 205 colon
  GI50: 8.33 µM
  TGI: 25.4 µM
KM12 colon
  GI50: 1.96 µM
  TGI: 4.39 µM
SNB-19 CNS
  GI50: 3.92 µM
  TGI: 15.8 µM
SK-MEL-5 melanoma
  GI50: 17.6 µM
  TGI: 33.4 µM
SK-MEL-28 melanoma
  GI50: 11.1 µM
  TGI: 23.3 µM
CAKI-1 renal
  GI50: 10.1 µM
  TGI: 23 µM
SNB-75 CNS
  GI50: 3.82 µM
  TGI: 20.6 µM
RPMI-8226 leukemia
  GI50: 2.2 µM
  TGI: 7.19 µM
SR leukemia
  GI50: 0.549 µM
  TGI: 4.86 µM
SF-268 CNS
  GI50: 4.97 µM
  TGI: 18.6 µM
ACHN renal
  GI50: 5.59 µM
  TGI: 18.2 µM
786-0 renal
  GI50: 3.39 µM
  TGI: 13.3 µM
MOLT-4 leukemia
  GI50: 3.07 µM
  TGI: 12.4 µM
MDA-MB-231 breast
  GI50: 6.12 µM
  TGI: 19.3 µM
HOP-92 NSCLC
  GI50: 4.21 µM
  TGI: 22.4 µM
HT29 colon
  GI50: 6.62 µM
  TGI: 24.8 µM
EKVX NSCLC
  GI50: 14.5 µM
  TGI: 36.8 µM
IGROV1 ovarian
  GI50: 12.8 µM
  TGI: 27.9 µM
SK-OV-3 ovarian
  GI50: 21.7 µM
  TGI: > 100 µM
BT-549 breast
  GI50: 2.61 µM
  TGI: 13.3 µM
SK-MEL-2 melanoma
  GI50: 17.1 µM
  TGI: 34 µM
NCI-H460 lung
  GI50: 3 µM
  TGI: 10.3 µM
UACC-257 melanoma
  GI50: 17 µM
  TGI: 36.9 µM
HCT-15 colon
  GI50: 2.12 µM
  TGI: 5.22 µM
K-562 leukemia
  GI50: 2.71 µM
  TGI: 9.19 µM
OVCAR-5 ovarian
  GI50: 12.2 µM
  TGI: 25.3 µM
MCF7 breast
  GI50: 2.53 µM
  TGI: 14.8 µM
SF-295 CNS
  GI50: 10.1 µM
  TGI: 24.1 µM
TK-10 renal
  GI50: 16.4 µM
  TGI: 41.5 µM
HCT-116 colon
  GI50: 1.89 µM
  TGI: 3.9 µM
NCI-H23 lung
  GI50: 10.7 µM
  TGI: 39.6 µM
A498 renal
  GI50: 21.2 µM
  TGI: 43.5 µM
HOP-62 NSCLC
  GI50: 5.23 µM
  TGI: 20.6 µM
U251 CNS
  GI50: 1.62 µM
  TGI: 4.25 µM
NCI-H522 lung
  GI50: 8.4 µM
  TGI: 22.3 µM
UO-31 renal
  GI50: 3.98 µM
  TGI: 18 µM
HS 578T breast
  GI50: 12.3 µM
  TGI: 60.2 µM
RXF 393 renal
  GI50: 11.1 µM
  TGI: 25.1 µM
SW-620 colon
  GI50: 1.93 µM
  TGI: 3.91 µM
OVCAR-3 ovarian
  GI50: 3.38 µM
  TGI: 12.8 µM
T-47D breast
  GI50: 21.4 µM
  TGI: > 100 µM
MDA-MB-435
  GI50: 6.96 µM
  TGI: 22.3 µM
MALME-3M melanoma
  GI50: 12.4 µM
  TGI: 26.4 µM
CCRF-CEM leukemia
  GI50: 2.75 µM
  TGI: 9.32 µM

## CC(=O)Nc1cccc(Nc2nc(NCc3ccccc3)c3ccccc3n2)c1
OVCAR-4 ovarian
  GI50: 1.79 µM
  TGI: 3.66 µM
DU-145 prostate
  GI50: 5.41 µM
  TGI: > 10 µM
HL-60(TB) leukemia
  GI50: 3.58 µM
  TGI: > 10 µM
HCC-2998 colon
  GI50: 1.68 µM
  TGI: 3.22 µM
PC-3 prostate
  GI50: 2.32 µM
  TGI: 8.15 µM
SN12C renal
  GI50: > 10 µM
  TGI: > 10 µM
UACC-62 melanoma
  GI50: 1.42 µM
  TGI: 2.74 µM
SF-539 CNS
  GI50: 1.74 µM
  TGI: 3.15 µM
NCI-H226 lung
  GI50: 1.69 µM
  TGI: 4.15 µM
OVCAR-8 ovarian
  GI50: 2.25 µM
  TGI: 5.17 µM
M14 melanoma
  GI50: 1.66 µM
  TGI: 3.11 µM
MDA-MB-468 breast
  GI50: 1.54 µM
  TGI: 3.01 µM
A549 NSCLC
  GI50: 2.82 µM
  TGI: > 10 µM
COLO 205 colon
  GI50: 1.9 µM
  TGI: 3.53 µM
KM12 colon
  GI50: 2.11 µM
  TGI: 4.91 µM
SNB-19 CNS
  GI50: 2.49 µM
  TGI: 9.38 µM
SK-MEL-5 melanoma
  GI50: 1.47 µM
  TGI: 3.12 µM
SK-MEL-28 melanoma
  GI50: 1.61 µM
  TGI: 3.02 µM
CAKI-1 renal
  GI50: 1.82 µM
  TGI: 4.4 µM
SNB-75 CNS
  GI50: 1.42 µM
  TGI: 3.51 µM
RPMI-8226 leukemia
  GI50: 3.24 µM
  TGI: > 10 µM
SR leukemia
  GI50: 4.05 µM
  TGI: > 10 µM
SF-268 CNS
  GI50: > 10 µM
  TGI: > 10 µM
ACHN renal
  GI50: 1.77 µM
  TGI: 3.66 µM
786-0 renal
  GI50: 1.83 µM
  TGI: 3.87 µM
MOLT-4 leukemia
  GI50: 3.08 µM
  TGI: > 10 µM
MDA-MB-231 breast
  GI50: 1.69 µM
  TGI: 3.24 µM
HOP-92 NSCLC
  GI50: 1.52 µM
  TGI: 7.85 µM
HT29 colon
  GI50: 1.84 µM
  TGI: 3.82 µM
EKVX NSCLC
  GI50: 4.01 µM
  TGI: > 10 µM
IGROV1 ovarian
  GI50: 3.15 µM
  TGI: > 10 µM
SK-OV-3 ovarian
  GI50: > 10 µM
  TGI: > 10 µM
BT-549 breast
  GI50: > 10 µM
  TGI: > 10 µM
SK-MEL-2 melanoma
  GI50: 3.41 µM
  TGI: > 10 µM
NCI-H460 lung
  GI50: 1.68 µM
  TGI: 3.3 µM
UACC-257 melanoma
  GI50: 1.86 µM
  TGI: 3.74 µM
HCT-15 colon
  GI50: 1.76 µM
  TGI: 3.45 µM
K-562 leukemia
  GI50: 3.25 µM
  TGI: > 10 µM
OVCAR-5 ovarian
  GI50: 2.08 µM
  TGI: 5.67 µM
MCF7 breast
  GI50: 1.61 µM
  TGI: 3.06 µM
SF-295 CNS
  GI50: 1.66 µM
  TGI: 3.05 µM
TK-10 renal
  GI50: 3.12 µM
  TGI: > 10 µM
HCT-116 colon
  GI50: 1.66 µM
  TGI: 3.16 µM
NCI-H23 lung
  GI50: 2.5 µM
  TGI: 9.11 µM
A498 renal
  GI50: > 10 µM
  TGI: > 10 µM
HOP-62 NSCLC
  GI50: 3.46 µM
  TGI: > 10 µM
U251 CNS
  GI50: 1.87 µM
  TGI: 3.93 µM
NCI-H522 lung
  GI50: 1.68 µM
  TGI: 3.24 µM
UO-31 renal
  GI50: 1.73 µM
  TGI: 5.41 µM
HS 578T breast
  GI50: 2.16 µM
  TGI: 5.96 µM
LOX IMVI melanoma
  GI50: 1.6 µM
  TGI: 2.98 µM
RXF 393 renal
  GI50: 1.56 µM
  TGI: 3.22 µM
SW-620 colon
  GI50: 1.83 µM
  TGI: 3.37 µM
OVCAR-3 ovarian
  GI50: 1.74 µM
  TGI: 3.3 µM
T-47D breast
  GI50: 1.65 µM
  TGI: 3.81 µM
MDA-MB-435
  GI50: 1.7 µM
  TGI: 3.26 µM
MALME-3M melanoma
  GI50: 1.48 µM
  TGI: 2.81 µM
CCRF-CEM leukemia
  GI50: 2.81 µM
  TGI: 7.87 µM
